Literature values, collected in PMC7191262 (Molecular pharmaceutics, 2020).
Read-outs that look alike come from different tables or passages of the source. *1 amine or outer side, *2 acyl side, *3 side chain or, on linkers, in order; H or OH if unused. Where a SMILES comes first, the peptide text is derived from it. Bridges are numbered along the chain shown (N, C = ends). [ ]: non-standard residue; d: D form. The star is where a group is joined. X1 = CN(C)c1ccc2c(c1)Oc1cc(N(C)C)ccc1C2=C1C=CC(=NC(=S)NC[C@](C)(O)C[C@H](N[*:1])C(=O)[*:2])C=C1C(=O)O; Trp(2-yl) = O=C([C@H](Cc1c([*:3])[nH]c2ccccc12)N[*:1])[*:2]; Dolaproine = CO[C@@H]([C@@H]1CCCN1)[C@@H](C)C(=O)O; Dil = CC[C@H](C)[C@H](NC)[C@@H](CC(=O)O)OC; cisHyp = O=C(O)[C@@H]1C[C@H](O)CN1; X2 = C[C@@H](N*)[C@@H](O)c1ccccc1; NMeV = CN[C@H](C(=O)O)C(C)C

Legend:
[1] = cargo previously delivered by pHLIP
[2] = pHLIP with no cargo; ref [33], [36], [39]
[3] = ref Moshnikova et al., 2013 (Ref [17])

Amanitin [Amanitin (SPDP linker)]
LogP/LogD [1, 3]: −0.2

C[C@@H]1NC(=O)[C@H](C[C@@](C)(O)CNC(=S)N=C2C=CC(=C3c4ccc(N(C)C)cc4Oc4cc(N(C)C)ccc43)C(C(=O)O)=C2)NC(=O)[C@@H]2Cc3c([nH]c4ccccc34)SC[C@H](NC(=O)[C@@H]([C@H](C)O)NC1=O)C(=O)N1C[C@@H](O)C[C@H]1C(=O)N[C@@H](C)C(=O)N2 [Phalloidin-TRITC] (cyclo(A[dT]C[cisHyp]A[Trp(2-yl)][X1]); thioether 3-6)
LogP/LogD ([1]; ref Reshetnyak et al., 2006 (Ref [24])): −0.05

GGEQNPIYWARYADWLFTTPLLLLDLALLVDADEGTC(NPys)G [pHLIP]
characteristic time for insertion [2]: ~ 40 seconds

Amanitin [Amanitin (Lc-SMPT linker)]
LogP/LogD [1, 3]: 0.2

CC[C@H](C)[C@@H]([C@@H](CC(=O)N1CCC[C@H]1[C@H](OC)[C@@H](C)C(=O)N[C@@H](Cc1ccccc1)C(=O)O)OC)N(C)C(=O)[C@@H](NC(=O)[C@@H](NC)C(C)C)C(C)C [Monomethyl Auristatin F] (H-[NMeV]V[Dil][Dolaproine]F-OH)
LogP/LogD ([1]; ref Burns et al., 2017 (Ref [20])): 0.7

CC[C@H](C)[C@@H]([C@@H](CC(=O)N1CCC[C@H]1[C@H](OC)[C@@H](C)C(=O)N[C@H](C)[C@@H](O)c1ccccc1)OC)N(C)C(=O)[C@@H](NC(=O)[C@@H](NC)C(C)C)C(C)C [Monomethyl Auristatin E] (H-[NMeV]V[Dil][Dolaproine]-X2)
LogP/LogD ([1]; ref Burns et al., 2015 (Ref [21])): 2.2
